How the values were obtained:
[1] = biological target: T1, phosphorylated ERBB2 (pERBB2) (Homo sapiens, UniProt P04626); test: Detection of phosphorylated ERBB2 (pERBB2) by ELISA in BT-474 cells; type: cell-based; settings: four hours incubation
T1 construct: endogenous in cells; host or cells: BT-474
Experimental: BT-474 cells were seeded into a 96-well at 2.0*10^4 cells/100 μl/well.
Compounds were dissolved and serially diluted in DMSO. The compounds were then were added, mixed, and incubated for four hours at 37° C., 5% CO2. Compounds were added using four-fold dilutions at final concentrations ranging from 10 μM to 0.01 nM.
Following the four hour incubation with compounds, cell lysates were prepared.
Plates were centrifuged for 5 min at 3000 RPM, and supernatant was removed from each well. Cells were washed 3 times by resuspension in 150 μl PBS, followed by centrifugation and removal of the supernatant, as above. […] Cells were incubated with lysis buffer for 1 hour at 4° C., and then stored at −80° C.
Enzyme-linked immunosorbent assays (ELISA) were performed to measure phosphorylated ERBB2 levels. […] The next day, plates were washed with PBS+0.05% Tween20 (PBST). 150 μl of 5% BSA blocking solution was added for 1 hour at room temperature, with shaking. Plates were washed with PBST. Cell lysates were thawed and 100 μl of lysate was added to the ELISA plate. The plates were incubated for 2 hours at room temperature, with shaking. […] Plates were incubated for 1 hour at room temperature, with shaking. Plates were then washed with PBST, and 100 μl TMB substrate solution (R&D Systems, cat #DY999) was added. Plate were incubated in the dark for 20 minutes at room temperature. 50 μl of Stop solution (R&D Systems, cat #DY994) (50 μl) was added to each well and mixed.
Optical density at 450 nm was read on an EnSpire plate reader (Perkin Elmer). The remaining kinase activity by calculated using the following formula: % Relative activity=100×(A450sample−A450LC)/(A450HC−A450LC). The low and high control values (“LC” and “HC”) were generated from lysate from wells without cells or with cells treated with 0.1% DMSO, respectively.

[2] = biological target: T2, phosphorylated EGFR (pEGFR) (Homo sapiens, UniProt P00533); test: Detection of phosphorylated EGFR (pEGFR) in EGF-stimulated A431 cells; type: cell-based; settings: A431 cells (10% FBS), 4 hours incubation, EGF 30 ng/mL 10 minutes, AlphaLISA
T2 construct: performed to measure phosphorylated EGFR levels using A431 cells (10% FBS); endogenous in cells; host or cells: A431
T2 sequence (P00533 25-1210): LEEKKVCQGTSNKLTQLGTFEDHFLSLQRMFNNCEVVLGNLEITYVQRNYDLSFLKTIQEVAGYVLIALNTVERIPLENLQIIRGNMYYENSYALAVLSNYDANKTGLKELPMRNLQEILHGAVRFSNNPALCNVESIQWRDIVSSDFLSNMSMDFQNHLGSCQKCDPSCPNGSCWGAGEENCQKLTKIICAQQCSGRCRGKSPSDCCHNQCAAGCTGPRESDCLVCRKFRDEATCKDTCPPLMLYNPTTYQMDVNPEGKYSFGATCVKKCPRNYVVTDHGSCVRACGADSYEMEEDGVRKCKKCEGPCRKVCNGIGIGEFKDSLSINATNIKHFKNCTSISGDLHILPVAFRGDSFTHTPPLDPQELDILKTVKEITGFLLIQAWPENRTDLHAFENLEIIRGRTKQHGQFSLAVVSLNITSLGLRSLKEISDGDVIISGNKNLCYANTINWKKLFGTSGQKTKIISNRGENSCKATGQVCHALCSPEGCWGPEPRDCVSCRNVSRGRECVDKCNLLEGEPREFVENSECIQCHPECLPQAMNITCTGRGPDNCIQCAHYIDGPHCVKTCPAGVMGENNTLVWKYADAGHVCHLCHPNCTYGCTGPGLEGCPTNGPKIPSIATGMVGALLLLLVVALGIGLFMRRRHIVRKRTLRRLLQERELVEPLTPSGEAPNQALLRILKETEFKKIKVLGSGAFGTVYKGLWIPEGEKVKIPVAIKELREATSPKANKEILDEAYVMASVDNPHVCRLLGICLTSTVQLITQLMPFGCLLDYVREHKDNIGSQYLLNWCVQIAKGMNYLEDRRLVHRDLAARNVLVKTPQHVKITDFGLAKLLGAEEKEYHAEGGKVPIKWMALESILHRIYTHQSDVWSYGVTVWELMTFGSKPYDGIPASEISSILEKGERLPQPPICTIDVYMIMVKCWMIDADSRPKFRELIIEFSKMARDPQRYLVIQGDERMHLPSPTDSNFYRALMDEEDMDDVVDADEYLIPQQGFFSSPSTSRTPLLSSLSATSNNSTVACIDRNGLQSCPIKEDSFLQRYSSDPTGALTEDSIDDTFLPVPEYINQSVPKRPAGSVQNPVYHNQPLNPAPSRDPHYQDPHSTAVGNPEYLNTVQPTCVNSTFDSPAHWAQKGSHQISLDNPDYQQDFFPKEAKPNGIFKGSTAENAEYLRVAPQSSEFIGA
Experimental: Enzyme-linked immunosorbent assays (ELISA) were performed to measure phosphorylated EGFR levels using A431 cells (10% FBS). A431 (1.0*10^4 cells/40 μl/well) cells were seeded in 384 well. Compounds were dissolved in DMSO, serially diluted in DMSO and then were added, mixed, and incubated for 4 hours at 37° C., 5% CO2. Following the 4-hours incubation, cells were stimulated for 10 minutes with EGF (Invitrogen, cat #PHG0311) at a final concentration of 30 ng/mL in the incubator. The media was aspirated and cells were lysed in 10 μL lysis buffer with protease and phosphatase inhibitors (PerkinElmer, cat #ALSU-PEGFR-A50K). The plates were placed on a shaker for 5 minutes and then incubated for 30 min at 4° C. for complete lysis. The lysate was transferred to an Optiplate (Perkin Elmer, cat #6007290).
Acceptor mix (PerkinElmer, cat #ALSU-PEGFR-A50K) was prepared just before use and 5 μL was dispensed to all the wells, followed by a 1.5-2 h incubation at room temperature in dark. The donor mix (PerkinElmer, cat #ALSU-PEGFR-A50K) was prepared under low light conditions prior to use and […] of donor mix was added to all the wells under subdued lighting or green filters. The plates were placed on a shaker for 5 min, sealed, and incubated overnight at room temperature in dark. Plates were read on the Envision (PerkinElmer) using standard AlphaLISA settings.
The percentage of inhibition on EGFR phosphorylation was calculated following equation: % Inhibition=100×(LumHC−LumSample)/(LumHC−LumLC). The low and high controls (LC/HC) are generated from lysate from wells with cells treated with DMSO or […] Staurosporine (BioAustralis, cat #BIA-S1086), […]. IC50 values were calculated by fitting the Curve using XLfit (v5.3.1.3), equation 201: Y=Bottom+(Top−Bottom)/(1+10^((Log IC50−X)*HillSlope)).

[3] = biological target: Ba/F3 ERBB2 A775_G776insYVMA (Homo sapiens, UniProt P04626, DUP772-775, cells depend on it); test: Cell viability assay, Ba/F3 ERBB2 A775_G776insYVMA; type: cell-based, mouse; settings: Ba/F3 ERBB2 YVMA cells, cell viability, 72 hours, CellTiter Glo; Table B5; read-out: Ba/F3 ERBB2 YVMA, IC50
Sequence of Ba/F3 ERBB2 A775_G776insYVMA (P04626 with tags, fused parts or gaps DUP772-775): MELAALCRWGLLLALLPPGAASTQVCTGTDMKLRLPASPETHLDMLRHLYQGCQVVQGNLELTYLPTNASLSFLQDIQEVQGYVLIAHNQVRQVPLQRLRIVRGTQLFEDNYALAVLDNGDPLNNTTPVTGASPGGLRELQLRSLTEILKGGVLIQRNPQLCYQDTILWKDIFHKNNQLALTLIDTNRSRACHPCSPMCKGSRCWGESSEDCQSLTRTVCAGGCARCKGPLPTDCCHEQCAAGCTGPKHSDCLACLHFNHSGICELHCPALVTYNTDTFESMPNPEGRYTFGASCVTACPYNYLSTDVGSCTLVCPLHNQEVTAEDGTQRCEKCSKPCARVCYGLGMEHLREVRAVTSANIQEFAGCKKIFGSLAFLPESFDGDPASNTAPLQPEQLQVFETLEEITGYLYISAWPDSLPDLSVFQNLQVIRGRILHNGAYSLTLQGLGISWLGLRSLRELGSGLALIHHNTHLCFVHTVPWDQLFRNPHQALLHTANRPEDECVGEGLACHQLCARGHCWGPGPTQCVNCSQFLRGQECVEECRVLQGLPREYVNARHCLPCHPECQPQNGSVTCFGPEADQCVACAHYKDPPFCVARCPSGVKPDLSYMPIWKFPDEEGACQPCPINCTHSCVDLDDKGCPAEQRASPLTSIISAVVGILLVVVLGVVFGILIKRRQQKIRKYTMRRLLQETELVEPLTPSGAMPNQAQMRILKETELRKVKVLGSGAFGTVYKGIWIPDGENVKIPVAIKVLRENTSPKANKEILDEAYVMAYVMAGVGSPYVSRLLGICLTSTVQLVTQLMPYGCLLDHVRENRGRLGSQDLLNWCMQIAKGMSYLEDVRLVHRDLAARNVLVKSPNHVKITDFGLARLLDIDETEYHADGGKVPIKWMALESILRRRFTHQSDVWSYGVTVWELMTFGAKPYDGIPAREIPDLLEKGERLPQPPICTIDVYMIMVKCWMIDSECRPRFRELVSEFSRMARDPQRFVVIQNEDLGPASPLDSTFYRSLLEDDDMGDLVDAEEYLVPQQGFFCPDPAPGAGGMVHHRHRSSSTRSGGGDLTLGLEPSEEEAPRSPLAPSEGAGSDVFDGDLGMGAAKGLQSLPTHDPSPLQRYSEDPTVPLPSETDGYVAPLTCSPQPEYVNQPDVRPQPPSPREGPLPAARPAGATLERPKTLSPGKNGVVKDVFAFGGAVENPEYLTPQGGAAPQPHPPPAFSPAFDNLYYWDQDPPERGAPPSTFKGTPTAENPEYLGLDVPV
Experimental: Cells were treated with compounds, and cell viability was measured as a metric of kinase inhibition.
The Ba/F3 cell line is IL-3-dependent mouse cell line derived from the C3H mouse strain. Ba/F3 cell lines were engineered to express human ERBB2 or EGFR kinases, rendering the cells IL-3 independent. The lines were generated via retroviral transduction utilizing a Moloney murine leukemia virus (MMLV) promoter, and constructs are stably integrated into the cell genome. The sequences of the ERBB2 and EGFR genes used were NCBI Reference Sequences NM_004448.3 and NM_005228.3, respectively.
Similarly, Ba/F3 cell lines engineered to express EGFR, ERBB2, or ERBB2 mutants were grown, harvested, counted and seeded at 3000 cells per well in 96-well plates. A subset of wells contained media only (low control, “LC”).
Table B1 provides the growth media and number of cells seeded per well for the each cell line.
Plates were placed in a 37° C., 5% CO2 incubator for 72 hours. Plates were then removed from the incubator and equilibrated for 15 minutes at room temperature. 40 μl of CellTiter Glo reagent (Promega) was added to measure the relative level of metabolically active cells by quantifying intracellular ATP concentrations. Plates were incubated for 30 minutes at room temperature, and luminescence was measured. […] Graphical curves were fitted using a nonlinear regression model with a sigmoidal dose response.

T1 sequence (P04626 23-1255): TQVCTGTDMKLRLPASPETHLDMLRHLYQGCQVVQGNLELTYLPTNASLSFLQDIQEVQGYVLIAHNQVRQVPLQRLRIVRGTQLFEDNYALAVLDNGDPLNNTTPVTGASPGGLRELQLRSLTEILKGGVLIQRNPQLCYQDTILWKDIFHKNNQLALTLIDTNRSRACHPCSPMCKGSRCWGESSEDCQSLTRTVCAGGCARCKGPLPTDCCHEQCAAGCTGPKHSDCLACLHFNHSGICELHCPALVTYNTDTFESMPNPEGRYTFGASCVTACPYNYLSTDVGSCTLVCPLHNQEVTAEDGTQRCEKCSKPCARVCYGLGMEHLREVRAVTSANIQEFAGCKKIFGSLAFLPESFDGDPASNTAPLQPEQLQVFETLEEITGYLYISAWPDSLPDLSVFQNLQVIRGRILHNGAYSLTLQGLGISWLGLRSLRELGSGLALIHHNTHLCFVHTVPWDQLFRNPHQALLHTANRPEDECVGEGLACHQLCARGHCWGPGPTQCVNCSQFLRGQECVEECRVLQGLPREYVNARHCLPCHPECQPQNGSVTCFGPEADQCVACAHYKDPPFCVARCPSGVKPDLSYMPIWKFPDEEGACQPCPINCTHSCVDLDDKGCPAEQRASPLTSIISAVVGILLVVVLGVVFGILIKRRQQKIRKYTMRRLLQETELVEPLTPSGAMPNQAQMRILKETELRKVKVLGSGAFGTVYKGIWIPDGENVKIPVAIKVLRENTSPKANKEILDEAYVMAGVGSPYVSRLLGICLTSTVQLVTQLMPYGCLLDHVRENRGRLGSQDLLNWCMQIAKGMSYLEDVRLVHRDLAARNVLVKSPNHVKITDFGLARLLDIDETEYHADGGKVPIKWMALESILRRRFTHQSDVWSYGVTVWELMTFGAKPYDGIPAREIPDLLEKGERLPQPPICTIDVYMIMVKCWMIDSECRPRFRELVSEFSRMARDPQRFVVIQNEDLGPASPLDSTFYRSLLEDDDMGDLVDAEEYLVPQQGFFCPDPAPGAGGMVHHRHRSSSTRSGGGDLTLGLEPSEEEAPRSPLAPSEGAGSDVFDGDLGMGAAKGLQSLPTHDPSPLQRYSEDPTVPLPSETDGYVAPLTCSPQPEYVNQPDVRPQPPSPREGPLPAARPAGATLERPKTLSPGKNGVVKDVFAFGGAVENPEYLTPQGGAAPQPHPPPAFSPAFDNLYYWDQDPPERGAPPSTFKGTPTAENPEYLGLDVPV

IC50 [1] [nM]	IC50 [2] [nM]	Compound	GI50 [3] [nM]
41.3	> 10000	Cc1cc(Nc2ncnc3cnc(N4CC(C)C(=CCN(C)C)C4=O)cc23)ccc1Oc1ccc2c(c1)ncn2C (single isomer, unassigned) [Example S97, Enantiomer #1, 3-[2-(dimethylamino)ethylidene]-4-methyl-1-[4-({3-methyl-4-[(1-methyl-1,3-benzodiazol-5-yl)oxy]phenyl}amino)pyrido[3,4-d]pyrimidin-6-yl]pyrrolidin-2-one]	45.6
21	490	Cc1cc(Nc2ncnc3cnc(N4CC(C)C(=CCN(C)C)C4=O)cc23)ccc1Oc1ccc2c(c1)ncn2C (single isomer, unassigned) [Example S97, Enantiomer #2, 3-[2-(dimethylamino)ethylidene]-4-methyl-1-[4-({3-methyl-4-[(1-methyl-1,3-benzodiazol-5-yl)oxy]phenyl}amino)pyrido[3,4-d]pyrimidin-6-yl]pyrrolidin-2-one]	4.12
11.9	158	Cc1cc(Nc2ncnc3ccc(N4CC(C)C(=CCN(C)C)C4=O)nc23)ccc1Oc1ccn2ncnc2c1 (single isomer, unassigned) [Example S98, Enantiomer #1, 3-[2-(dimethylamino)ethylidene]-4-methyl-1-{4-[(3-methyl-4-{[1,2,4]triazolo[1,5-a]pyridin-7-yloxy}phenyl)amino]pyrido[3,2-d]pyrimidin-6-yl}pyrrolidin-2-one]	1.13
26.4	> 10000	Cc1cc(Nc2ncnc3ccc(N4CC(C)C(=CCN(C)C)C4=O)nc23)ccc1Oc1ccn2ncnc2c1 (single isomer, unassigned) [Example S98, Enantiomer #2, 3-[2-(dimethylamino)ethylidene]-4-methyl-1-{4-[(3-methyl-4-{[1,2,4]triazolo[1,5-a]pyridin-7-yloxy}phenyl)amino]pyrido[3,2-d]pyrimidin-6-yl}pyrrolidin-2-one]	71.2
19.1	6680	Cc1cc(Nc2ncnc3ccc(N4C(=O)C(=CCN(C)C)C5CC54)nc23)ccc1Oc1ccn2ncnc2c1 (single isomer, unassigned) [Example S108, Enantiomer #1, 4-[2-(dimethylamino)ethylidene]-2-{4-[(3-methyl-4-{[1,2,4]triazolo[1,5-a]pyridin-7-yloxy}phenyl)amino]pyrido[3,2-d]pyrimidin-6-yl}-2-azabicyclo[3.1.0]hexan-3-one]	54
12.7	175	Cc1cc(Nc2ncnc3ccc(N4C(=O)C(=CCN(C)C)C5CC54)nc23)ccc1Oc1ccn2ncnc2c1 (single isomer, unassigned) [Example S108, Enantiomer #2, 4-[2-(dimethylamino)ethylidene]-2-{4-[(3-methyl-4-{[1,2,4]triazolo[1,5-a]pyridin-7-yloxy}phenyl)amino]pyrido[3,2-d]pyrimidin-6-yl}-2-azabicyclo[3.1.0]hexan-3-one]	4.88
16.6	274	C=C1C(=O)N(c2ccc3ncnc(Nc4ccc(Oc5ccn6ncnc6c5)c(C)c4)c3c2)CC1COCCN(C)C (single isomer, unassigned) [Example S111, Enantiomer #1, 1-(4-(4-([1,2,4]triazolo[1,5-a]pyridin-7-yloxy)-3-methylphenylamino)quinazolin-6-yl)-4-((2-(dimethylamino)ethoxy)methyl)-3-methylenepyrrolidin-2-one]	18.4
18.2	33.7	C=C1C(=O)N(c2ccc3ncnc(Nc4ccc(Oc5ccn6ncnc6c5)c(C)c4)c3c2)CC1COCCN(C)C (single isomer, unassigned) [Example S111, Enantiomer #2, 1-(4-(4-([1,2,4]triazolo[1,5-a]pyridin-7-yloxy)-3-methylphenylamino)quinazolin-6-yl)-4-((2-(dimethylamino)ethoxy)methyl)-3-methylenepyrrolidin-2-one]	10.8
32	1000	Cc1cc(Nc2ncnc3cnc(N4CC(C)/C(=C\CN(C)C)C4=O)cc23)c(F)cc1Oc1ccc2c(c1)nnn2C (single isomer, unassigned) [Example S115, Enantiomer #1, (3E)-3-[2-(dimethylamino)ethylidene]-1-[4-({2-fluoro-5-methyl-4-[(1-methyl-1,2,3-benzotriazol-5-yl)oxy]phenyl}amino)pyrido[3,4-d]pyrimidin-6-yl]-4-methylpyrrolidin-2-one]	11.3
273	> 10000	Cc1cc(Nc2ncnc3cnc(N4CC(C)/C(=C\CN(C)C)C4=O)cc23)c(F)cc1Oc1ccc2c(c1)nnn2C (single isomer, unassigned) [Example S115, Enantiomer #2, (3E)-3-[2-(dimethylamino)ethylidene]-1-[4-({2-fluoro-5-methyl-4-[(1-methyl-1,2,3-benzotriazol-5-yl)oxy]phenyl}amino)pyrido[3,4-d]pyrimidin-6-yl]-4-methylpyrrolidin-2-one]	286
40	968	CC1CN(c2cc3c(Nc4ccc(Oc5ccc6c(c5)nnn6C)c(F)c4)ncnc3cn2)C(=O)/C1=C/CN(C)C (single isomer, unassigned) [Example S117, Enantiomer #1, (E)-3-(2-(dimethylamino)ethylidene)-1-(4-((3-fluoro-4-((1-methyl-1H-benzo[d][1,2,3]triazol-5-yl)oxy)phenyl)amino)pyrido[3,4-d]pyrimidin-6-yl)-4-methylpyrrolidin-2-one]	12
589	> 10000	CC1CN(c2cc3c(Nc4ccc(Oc5ccc6c(c5)nnn6C)c(F)c4)ncnc3cn2)C(=O)/C1=C/CN(C)C (single isomer, unassigned) [Example S117, Enantiomer #2, (E)-3-(2-(dimethylamino)ethylidene)-1-(4-((3-fluoro-4-((1-methyl-1H-benzo[d][1,2,3]triazol-5-yl)oxy)phenyl)amino)pyrido[3,4-d]pyrimidin-6-yl)-4-methylpyrrolidin-2-one]	> 500

From patent publication US20240116921A1, “LACTAM (HETERO)[…] DERIVATIVES AS INHIBITORS OF ERBB2” (EnLiven Therapeutics, Inc., priority 2020, published 2024)
